According to ChEMBL document CHEMBL3217489, “Minisci reactions: Versatile CH-functionalizations for medicinal chemists” (Medchemcomm, 2011):
pIC50, pKi: −log10 of the molar value.

Key:
[1] = molecular target: Neuronal acetylcholine receptor; alpha4/beta2 (Homo sapiens, UniProt P17787+P43681); assay: Inhibition of alpha4beta2 nAChR (unknown origin); type: protein-complex assay
Adenosine deaminase = molecular target: T1, Adenosine deaminase (Bos taurus, UniProt P56658); assay: Inhibition of calf duodenum adenosine deaminase
T1 sequence (P56658 whole entry): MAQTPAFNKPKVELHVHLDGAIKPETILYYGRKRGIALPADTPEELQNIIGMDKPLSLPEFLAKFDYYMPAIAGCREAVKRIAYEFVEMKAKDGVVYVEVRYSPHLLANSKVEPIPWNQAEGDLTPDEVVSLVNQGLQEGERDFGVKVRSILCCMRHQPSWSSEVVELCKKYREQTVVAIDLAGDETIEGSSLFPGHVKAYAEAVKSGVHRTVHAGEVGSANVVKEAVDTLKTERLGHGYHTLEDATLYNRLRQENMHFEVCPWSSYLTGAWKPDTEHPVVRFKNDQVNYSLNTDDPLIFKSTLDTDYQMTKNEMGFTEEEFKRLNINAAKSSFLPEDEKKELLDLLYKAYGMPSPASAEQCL

[2] = molecular target: T2, Steroid 17-alpha-hydroxylase/17,20 lyase (Homo sapiens, UniProt P05093); assay: Irreversible inhibition of human cytochrome P450 17alpha
T2 sequence (P05093 whole entry): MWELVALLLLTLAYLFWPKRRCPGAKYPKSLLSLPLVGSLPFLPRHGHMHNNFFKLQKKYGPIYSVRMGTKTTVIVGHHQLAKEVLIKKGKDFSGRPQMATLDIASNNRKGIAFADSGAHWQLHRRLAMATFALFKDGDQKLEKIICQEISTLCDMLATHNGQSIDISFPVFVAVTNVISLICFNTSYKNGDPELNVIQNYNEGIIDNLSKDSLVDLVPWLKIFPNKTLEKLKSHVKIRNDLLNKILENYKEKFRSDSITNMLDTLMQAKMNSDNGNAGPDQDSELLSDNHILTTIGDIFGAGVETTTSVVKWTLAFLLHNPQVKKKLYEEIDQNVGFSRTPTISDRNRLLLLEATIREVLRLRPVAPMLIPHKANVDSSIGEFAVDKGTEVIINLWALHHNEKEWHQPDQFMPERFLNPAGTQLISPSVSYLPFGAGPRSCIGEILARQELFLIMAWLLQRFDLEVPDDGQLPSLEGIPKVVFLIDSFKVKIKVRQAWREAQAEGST

[3] = molecular target: T2, Steroid 17-alpha-hydroxylase/17,20 lyase; assay: Reversible inhibition of human cytochrome P450 17alpha

Sequence of Neuronal acetylcholine receptor; alpha4/beta2 (P17787 whole entry): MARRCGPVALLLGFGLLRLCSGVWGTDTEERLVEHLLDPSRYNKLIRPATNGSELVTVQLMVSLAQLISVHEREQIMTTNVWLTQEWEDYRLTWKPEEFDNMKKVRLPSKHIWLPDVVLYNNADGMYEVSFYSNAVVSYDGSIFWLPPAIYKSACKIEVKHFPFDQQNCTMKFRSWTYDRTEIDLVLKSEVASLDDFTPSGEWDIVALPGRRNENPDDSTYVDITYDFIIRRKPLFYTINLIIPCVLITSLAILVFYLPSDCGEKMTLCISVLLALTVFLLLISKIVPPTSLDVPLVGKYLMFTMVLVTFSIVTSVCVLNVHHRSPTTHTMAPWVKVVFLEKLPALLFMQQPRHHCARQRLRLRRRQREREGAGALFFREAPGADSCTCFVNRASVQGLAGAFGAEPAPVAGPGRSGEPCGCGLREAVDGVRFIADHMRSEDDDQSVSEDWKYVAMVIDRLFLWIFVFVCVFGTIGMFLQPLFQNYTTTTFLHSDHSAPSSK
Sequence of Neuronal acetylcholine receptor; alpha4/beta2 (P43681 whole entry): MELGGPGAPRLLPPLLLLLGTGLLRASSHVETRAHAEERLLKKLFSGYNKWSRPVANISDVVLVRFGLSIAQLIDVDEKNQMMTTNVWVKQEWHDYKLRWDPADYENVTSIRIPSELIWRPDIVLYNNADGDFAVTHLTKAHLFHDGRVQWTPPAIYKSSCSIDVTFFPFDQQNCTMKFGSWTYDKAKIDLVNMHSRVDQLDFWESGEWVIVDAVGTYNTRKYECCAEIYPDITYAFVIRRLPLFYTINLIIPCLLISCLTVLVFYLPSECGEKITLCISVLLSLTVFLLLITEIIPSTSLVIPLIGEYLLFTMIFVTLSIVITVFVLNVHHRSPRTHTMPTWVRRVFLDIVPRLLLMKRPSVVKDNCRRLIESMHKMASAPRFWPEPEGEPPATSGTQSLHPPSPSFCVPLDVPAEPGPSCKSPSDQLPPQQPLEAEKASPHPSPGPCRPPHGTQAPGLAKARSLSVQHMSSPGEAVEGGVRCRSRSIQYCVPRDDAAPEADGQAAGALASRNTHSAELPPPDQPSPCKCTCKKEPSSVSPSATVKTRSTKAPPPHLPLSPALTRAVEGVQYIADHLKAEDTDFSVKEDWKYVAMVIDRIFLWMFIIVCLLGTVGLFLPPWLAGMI

Row | Compound | pKi (Adenosine deaminase) | other results
1 | Clc1cc2c(cn1)C1CNCC(C2)C1 (racemic) |  | pKi [1]: 9.30
2 | OCC1NC=Nc2c1ncn2[C@@H]1O[C@H](CO)[C@@H](O)[C@H]1O (single isomer, unassigned; diastereomer 1) | 6.12 | 
3 | OCC1NC=Nc2c1ncn2[C@@H]1O[C@H](CO)[C@@H](O)[C@H]1O (single isomer, unassigned; diastereomer 2) | 4.90 | 
4 | Clc1ccc2c(n1)CC1CNCC2C1 (racemic) |  | pKi [1]: 8.46
5 | OC[C@H]1O[C@@H](n2cnc3cncnc32)[C@H](O)[C@@H]1O [NEBULARINE] | 5.03 | 
6 | OCc1ncnc2c1ncn2[C@@H]1O[C@H](CO)[C@@H](O)[C@H]1O | 5.03 | 
7 | C[C@]12CC[C@H](O)CC1=CC[C@@H]1[C@@H]2CC[C@]2(C)C(c3cccnc3)=CC[C@@H]12 [ABIRATERONE] |  | pIC50 [2]: 8.30
8 | C[C@]12CC[C@H]3[C@@H](CC=C4C[C@@H](O)CC[C@@]43C)[C@@H]1CC[C@H]2c1ccncc1 |  | pIC50 [3]: 7.57
